Measured values published in PubChem BioAssay AID1259407 (Chemical Carcinogenesis Research Information System (CCRIS), 2018).
Calls of active or inactive are those of the source. No rule for the calls is given here.

Test system: CCRIS mutagenicity, Ames/micronucleus/aberration tests
Test: CCRIS mutagenicity studies
[1] = Test System: AMES SALMONELLA TYPHIMURIUM, Strain/Indicator: TA98, Metabolic Activation: NONE, Method: PREINCUBATION
[2] = Test System: AMES SALMONELLA TYPHIMURIUM, Strain/Indicator: TA100, Metabolic Activation: NONE, Method: PREINCUBATION
[3] = Test System: AMES SALMONELLA TYPHIMURIUM, Strain/Indicator: TA1535, Metabolic Activation: NONE, Method: PREINCUBATION
[4] = Test System: AMES SALMONELLA TYPHIMURIUM, Strain/Indicator: TA1537, Metabolic Activation: NONE, Method: PREINCUBATION
[5] = Test System: AMES SALMONELLA TYPHIMURIUM, Strain/Indicator: TA97, Metabolic Activation: NONE, Method: PREINCUBATION

Measured: mutagenic call

C[C@@H]1COc2c(N3CCN(C)CC3)c(F)cc3c(=O)c(C(=O)O)cn1c23
inactive: [1] inactive; negative | Test System: AMES SALMONELLA TYPHIMURIUM, Strain/Indicator: TA98, Metabolic Activation: RAT, LIVER, S-9, PHENOBARBITAL AND BETA-NAPHTHOFLAVONE, Method: PREINCUBATION inactive; negative | [2] inactive; negative | Test System: AMES SALMONELLA TYPHIMURIUM, Strain/Indicator: TA100, Metabolic Activation: RAT, LIVER, S-9, PHENOBARBITAL AND BETA-NAPHTHOFLAVONE, Method: PREINCUBATION inactive; negative | [3] inactive; negative | Test System: AMES SALMONELLA TYPHIMURIUM, Strain/Indicator: TA1535, Metabolic Activation: RAT, LIVER, S-9, PHENOBARBITAL AND BETA-NAPHTHOFLAVONE, Method: PREINCUBATION inactive; negative | [4] inactive; negative | Test System: AMES SALMONELLA TYPHIMURIUM, Strain/Indicator: TA1537, Metabolic Activation: RAT, LIVER, S-9, PHENOBARBITAL AND BETA-NAPHTHOFLAVONE, Method: PREINCUBATION inactive; negative | Test System: E.COLI, Strain/Indicator: WP2 UVRA, Metabolic Activation: NONE, Method: PREINCUBATION inactive; negative | Test System: E.COLI, Strain/Indicator: WP2 UVRA, Metabolic Activation: RAT, LIVER, S-9, PHENOBARBITAL AND BETA-NAPHTHOFLAVONE, Method: PREINCUBATION inactive; negative

O=C(COc1ccc(Cl)cc1Cl)N[C@@H](Cc1c[nH]c2ccccc12)C(=O)O
inactive: Test System: AMES SALMONELLA TYPHIMURIUM, Strain/Indicator: TA97, Metabolic Activation: RAT, LIVER, S-9, AROCLOR 1254, Method: STANDARD PLATE inactive; negative | Test System: AMES SALMONELLA TYPHIMURIUM, Strain/Indicator: TA97, Metabolic Activation: WOODCHUCK, LIVER, S-9, 3-METHYLCHOLANTHRENE, Method: STANDARD PLATE inactive; negative | Test System: AMES SALMONELLA TYPHIMURIUM, Strain/Indicator: TA98, Metabolic Activation: RAT, LIVER, S-9, AROCLOR 1254, Method: STANDARD PLATE inactive; negative | Test System: AMES SALMONELLA TYPHIMURIUM, Strain/Indicator: TA98, Metabolic Activation: WOODCHUCK, LIVER, S-9, 3-METHYLCHOLANTHRENE, Method: STANDARD PLATE inactive; negative | Test System: AMES SALMONELLA TYPHIMURIUM, Strain/Indicator: TA100, Metabolic Activation: RAT, LIVER, S-9, AROCLOR 1254, Method: STANDARD PLATE inactive; negative | Test System: AMES SALMONELLA TYPHIMURIUM, Strain/Indicator: TA100, Metabolic Activation: WOODCHUCK, LIVER, S-9, 3-METHYLCHOLANTHRENE, Method: STANDARD PLATE inactive; negative | Test System: AMES SALMONELLA TYPHIMURIUM, Strain/Indicator: TA1535, Metabolic Activation: RAT, LIVER, S-9, AROCLOR 1254, Method: STANDARD PLATE inactive; negative | Test System: AMES SALMONELLA TYPHIMURIUM, Strain/Indicator: TA1535, Metabolic Activation: WOODCHUCK, LIVER, S-9, 3-METHYLCHOLANTHRENE, Method: STANDARD PLATE inactive; negative | Test System: AMES SALMONELLA TYPHIMURIUM, Strain/Indicator: TA1538, Metabolic Activation: RAT, LIVER, S-9, AROCLOR 1254, Method: STANDARD PLATE inactive; negative | Test System: AMES SALMONELLA TYPHIMURIUM, Strain/Indicator: TA1538, Metabolic Activation: WOODCHUCK, LIVER, S-9, 3-METHYLCHOLANTHRENE, Method: STANDARD PLATE inactive; negative

CC(C#N)CCC#N (stereo not given)
inactive: Test System: AMES SALMONELLA TYPHIMURIUM, Strain/Indicator: TA97, Metabolic Activation: HAMSTER, LIVER, S-9, AROCLOR 1254 (5, 10 OR 30%), Method: PREINCUBATION inactive; negative | [5] inactive; negative | Test System: AMES SALMONELLA TYPHIMURIUM, Strain/Indicator: TA97, Metabolic Activation: RAT, LIVER, S-9, AROCLOR 1254 (5, 1O OR 30%), Method: PREINCUBATION inactive; negative | Test System: AMES SALMONELLA TYPHIMURIUM, Strain/Indicator: TA98, Metabolic Activation: HAMSTER, LIVER, S-9, AROCLOR 1254 (10%), Method: PREINCUBATION inactive; negative | [1] inactive; negative | Test System: AMES SALMONELLA TYPHIMURIUM, Strain/Indicator: TA98, Metabolic Activation: RAT, LIVER, S-9, AROCLOR 1254 (10%), Method: PREINCUBATION inactive; negative | Test System: AMES SALMONELLA TYPHIMURIUM, Strain/Indicator: TA100, Metabolic Activation: HAMSTER, LIVER, S-9, AROCLOR 1254 (10%), Method: PREINCUBATION inactive; negative | [2] inactive; negative | Test System: AMES SALMONELLA TYPHIMURIUM, Strain/Indicator: TA100, Metabolic Activation: RAT, LIVER, S-9, AROCLOR 1254 (10%), Method: PREINCUBATION inactive; negative | Test System: AMES SALMONELLA TYPHIMURIUM, Strain/Indicator: TA1535, Metabolic Activation: HAMSTER, LIVER, S-9, AROCLOR 1254 (10%), Method: PREINCUBATION inactive; negative | [3] inactive; negative | Test System: AMES SALMONELLA TYPHIMURIUM, Strain/Indicator: TA1535, Metabolic Activation: RAT, LIVER, S-9, AROCLOR 1254 (10%), Method: PREINCUBATION inactive; negative | Test System: AMES SALMONELLA TYPHIMURIUM, Strain/Indicator: TA1537, Metabolic Activation: HAMSTER, LIVER, S-9, AROCLOR 1254 (10 OR 30%), Method: PREINCUBATION inactive; negative | [4] inactive; negative | Test System: AMES SALMONELLA TYPHIMURIUM, Strain/Indicator: TA1537, Metabolic Activation: RAT, LIVER, S-9, AROCLOR 1254 (10 OR 30%), Method: PREINCUBATION inactive; negative

Oc1c(Cl)cccc1Cl
inactive: Test System: CHINESE HAMSTER V-79, Strain/Indicator: V-79/6-THIOGUANINE, Metabolic Activation: CELL-MEDIATED, Method: STANDARD PLATE inactive; negative | Test System: CHINESE HAMSTER V-79, Strain/Indicator: V-79/6-THIOGUANINE, Metabolic Activation: NONE, Method: STANDARD PLATE inactive; negative | Test System: CHINESE HAMSTER V-79, Strain/Indicator: V-79/6-THIOGUANINE, Metabolic Activation: PRIMARY RAT HEPATOCYTES, Method: STANDARD PLATE inactive; negative

COc1ccc2c3c1O[C@H]1[C@@H](O)C=C[C@H]4[C@@H](C2)N(C)CC[C@@]341
inactive: Test System: AMES SALMONELLA TYPHIMURIUM, Strain/Indicator: TA97, Metabolic Activation: HAMSTER, LIVER, S-9, AROCLOR 1254 (10 OR 30%), Method: PREINCUBATION inactive; negative | [5] inactive; negative | Test System: AMES SALMONELLA TYPHIMURIUM, Strain/Indicator: TA97, Metabolic Activation: RAT, LIVER, S-9, AROCLOR 1254 (10 OR 30%), Method: PREINCUBATION inactive; negative | Test System: AMES SALMONELLA TYPHIMURIUM, Strain/Indicator: TA98, Metabolic Activation: HAMSTER, LIVER, S-9, AROCLOR 1254 (10 OR 30%), Method: PREINCUBATION inactive; negative | [1] inactive; negative | Test System: AMES SALMONELLA TYPHIMURIUM, Strain/Indicator: TA98, Metabolic Activation: RAT, LIVER, S-9, AROCLOR 1254 (10 OR 30%), Method: PREINCUBATION inactive; negative | Test System: AMES SALMONELLA TYPHIMURIUM, Strain/Indicator: TA100, Metabolic Activation: HAMSTER, LIVER, S-9, AROCLOR 1254 (10 OR 30%), Method: PREINCUBATION inactive; negative | [2] inactive; negative | Test System: AMES SALMONELLA TYPHIMURIUM, Strain/Indicator: TA100, Metabolic Activation: RAT, LIVER, S-9, AROCLOR 1254 (10 OR 30%), Method: PREINCUBATION inactive; negative | Test System: AMES SALMONELLA TYPHIMURIUM, Strain/Indicator: TA1535, Metabolic Activation: HAMSTER, LIVER, S-9, AROCLOR 1254 (10 OR 30%), Method: PREINCUBATION inactive; negative | [3] inactive; negative | Test System: AMES SALMONELLA TYPHIMURIUM, Strain/Indicator: TA1535, Metabolic Activation: RAT, LIVER, S-9, AROCLOR 1254 (10 OR 30%), Method: PREINCUBATION inactive; negative
